Source: USRE40387E1, “Pharmaceutical compositions, dosage forms and methods for oral administration of epothilones” (Bristol-Myers Squibb Company, priority 2001, dated 2008)

What was measured:
[1] = Pharmacokinetics in mice (IV and oral); format: in vivo, female CDF
Protocol: (§1) Plasma samples from pharmacokinetic/pharmacodynamic studies were analyzed for the concentration of Compound (A) using an LC/MS/MS (liquid chromatography/mass spectrometry/mass spectrometry) assay with a standard curve range of 5 to 20,000 ng/mL (10 to 40,000 nM) for studies in mice and 2 to 1000 ng/mL (4 to 2000 nM) for studies in rats and dogs. In pharmacodynamic studies, concentrations of Compound (A) were determined using the LC/MS/MS assay with a standard curve range of 5 to 20,000 ng/mL (10 to 40,000 nM) in mouse plasma. The LC/MS/MS assay was also used to determine the concentrations of Compound (B), a degradation product of Compound (A) formed in the stock/dosing solution or in vivo, in rat and dog plasma. The structure of Compound (B) is: [drawing 9]
Compound (A) was administered intravenously (5 mg/kg) and orally (48 mg/kg) to female CDF, mice. For the IV route, Compound (A) was dissolved in 20% ethanol solution and was given as a bolus dose. For the oral route, solutions of Compound (A) were prepared as a 3:7 mixture of ethanol:phosphate buffered saline (0.25 M, pH 8.0) and administered by gavage. Plasma samples for determinating concentrations of Compound (A) were taken from 3 separate mice at 5, 15, and 45 min, and 2, 4, and 6 h after the IV dose, and at 15 and 45 min, and 2, 4, and 6 h after the oral dose.

[2] = Excretion in bile duct cannulated rats; format: in vivo, Sprague Dawley rats; details: intraarterial 10 mg/kg or oral 20 mg/kg, 9 h
Protocol: In another study, bile duct cannulated Sprague Dawley rats (n=2 per group) received a single intraterial (10 mg/kg) or oral (20 mg/kg) dose of Compound (A), and bile, urine, and plasma samples were collected over a period of 9 h after dose. There was negligible excretion of intact Compound (A) in the bile (C 1% of the dose). There was some detectable amount of Compound (A) in the urine, but actual concentrations were not quantified due to lack of stability data for Compound (A) in the urine. Several drug-related compounds in the urine and plasma were tentatively identified by LC/MS and included an isomer (M+0), and a hydrolysis product (M+18). In addition, a metabolite (M−2) was detected in the plasma.

[3] = Pharmacokinetics in dogs, 10 min IV infusion; format: in vivo, male beagle dogs
Protocol: as §1
Male beagle dogs (n=3) were administered a 10 min IV infusion of 0.5 mg/kg of Compound (A) (given as a 10% ethanol solution). Plasma samples were taken over a period of 32 h after dose to determine the plasma concentrations of Compound (A). […] The T-HALF was estimated to be approximately 24 h.

[4] = system: dog liver microsomes; test: Oxidative metabolism in dog liver microsomes; format: in vitro ADME; details: 40 :M, NADPH
Protocol: (§2) Upon incubation of Compound (A) (40 :M) with mouse, rat, dog, and human liver microsomes fortified with nicotinamide adenine dinucleotide phosphate (NADPH), the rate of oxidative metabolism of Compound (A) was 2.1, 0.7, 1.2 and 1.3 nmol/min/mg protein, respectively. Moreover, the metabolite distribution was similar among all species (metabolite masses included several […] and M−2 compounds). Qualitatively, there appeared to be similar production of metabolites of Compound (A) after incubation with rat or human hepatocytes compared to microsomal incubations. Products similar to those arising from the chemical degradation of Compound (A) appeared to be the major products in the hepatocyte incubations.

[5] = system: human liver microsomes; test: Oxidative metabolism in human liver microsomes; format: in vitro ADME; details: 40 :M, NADPH
Protocol: as §2

[6] = target: CYP2C9 (Homo sapiens, UniProt P11712); test: Inhibition of recombinant human CYP2C9 (deethylation of 3-cyano-7-ethoxycoumarin); format: in vitro ADME; details: recombinant human CYP isoform
Protocol: (§3) The ability of Compound (A) to inhibit the major human cytochrome P450s (CYPs) responsible for the metabolism of drugs was evaluated in vitro using recombinant human CYP isoforms. IC50 values for inhibition of deethylation of 3-cyano-7-ethoxycoumarin (CYP1A2, CYP2C9, CYP2C19, and CYP2D6) and for inhibition of dealkylation of benzoyl-resorufin (CYP3A4) were determined.

[7] = target: CYP2C19 (Homo sapiens, UniProt P33261); test: Inhibition of recombinant human CYP2C19 (deethylation of 3-cyano-7-ethoxycoumarin); format: in vitro ADME; details: recombinant human CYP isoform
Protocol: as §3

[8] = target: CYP2D6 (Homo sapiens, UniProt P10635); test: Inhibition of recombinant human CYP2D6 (deethylation of 3-cyano-7-ethoxycoumarin); format: in vitro ADME; details: recombinant human CYP isoform
Protocol: as §3

[9] = system: Caco-2 cell culture system; test: Caco-2 cell permeability
Protocol: The Pc of some model compounds, for which the bioavailability in humans is known, was also determined in the same experiment.

[10] = Stability of liquid formulation in 80:20 propylene glycol:ethanol; format: physicochemical; details: for can be stored for up to: 2.5 mg/mL to 12.5 mg/mL in 80:20 propylene glycol:ethanol
Protocol: The stability of compound (A) in 80:20 propylene glycol:ethanol was evaluated by reconstituting 25 mg Compound (A) with 80:20 propylene glycol:ethanol to provide a liquid oral dosage form at concentrations of 2.5 mg/mL to 12.5 mg/mL. The resulting liquid oral dosage form was then stored up to 20 hours at ambient temperature (20° C. to 25° C.) and room light and at refrigerated temperature (2° C. to 8° C.).
The change in total impurities was attributed to an increase of an oxazine impurity/degradant whose structure is depicted below: [drawing 10] Samples were analyzed using HPLC with a 75 mm×4.6 mm i.d., 3.5 :m particle sizeWaters Symmetry Shield RP8 column and with UV detection at 240 nm. 10 :L injection volumes were used, the column was maintained at ambient temperature and the flow rate was 1 mL/min. Analysis times were 1 hour and samples were eluted using gradient elution with a mobile phase of water (0.05% acetic acid) (mobil phase A) and a mobile phase of acetonitrile (0.05% acetic acid). The elution profile is described in the table below.

CYP2D6, sequence (P10635 whole entry, canonical isoform): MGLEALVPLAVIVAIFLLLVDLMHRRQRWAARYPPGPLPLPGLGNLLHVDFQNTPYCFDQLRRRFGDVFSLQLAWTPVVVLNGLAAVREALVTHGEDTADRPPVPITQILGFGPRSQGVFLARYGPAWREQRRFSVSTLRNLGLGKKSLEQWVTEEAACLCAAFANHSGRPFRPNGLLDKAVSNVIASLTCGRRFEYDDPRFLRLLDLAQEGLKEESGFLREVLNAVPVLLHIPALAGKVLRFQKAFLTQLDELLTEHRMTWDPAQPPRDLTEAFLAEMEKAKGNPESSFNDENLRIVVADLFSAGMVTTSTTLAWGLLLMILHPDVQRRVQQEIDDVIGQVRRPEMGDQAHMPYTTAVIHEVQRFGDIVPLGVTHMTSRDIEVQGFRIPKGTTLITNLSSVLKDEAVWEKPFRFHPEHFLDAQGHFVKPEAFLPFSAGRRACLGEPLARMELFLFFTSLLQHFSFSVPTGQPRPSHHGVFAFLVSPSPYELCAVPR
CYP2C9, sequence (P11712 whole entry, canonical isoform): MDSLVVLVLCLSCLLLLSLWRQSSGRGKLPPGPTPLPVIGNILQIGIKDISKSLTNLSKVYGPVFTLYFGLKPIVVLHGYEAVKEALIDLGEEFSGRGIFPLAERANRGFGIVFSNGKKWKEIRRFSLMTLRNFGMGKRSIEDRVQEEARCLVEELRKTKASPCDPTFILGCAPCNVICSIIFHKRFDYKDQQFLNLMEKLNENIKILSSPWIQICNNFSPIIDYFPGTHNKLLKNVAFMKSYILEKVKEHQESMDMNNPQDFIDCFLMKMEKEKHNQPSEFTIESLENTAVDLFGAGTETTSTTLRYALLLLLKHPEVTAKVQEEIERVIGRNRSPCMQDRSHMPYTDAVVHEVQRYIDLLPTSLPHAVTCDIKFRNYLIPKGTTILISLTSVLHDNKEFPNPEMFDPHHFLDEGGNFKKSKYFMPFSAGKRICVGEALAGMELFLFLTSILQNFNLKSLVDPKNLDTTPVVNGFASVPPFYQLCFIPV
CYP2C19, sequence (P33261 whole entry, canonical isoform): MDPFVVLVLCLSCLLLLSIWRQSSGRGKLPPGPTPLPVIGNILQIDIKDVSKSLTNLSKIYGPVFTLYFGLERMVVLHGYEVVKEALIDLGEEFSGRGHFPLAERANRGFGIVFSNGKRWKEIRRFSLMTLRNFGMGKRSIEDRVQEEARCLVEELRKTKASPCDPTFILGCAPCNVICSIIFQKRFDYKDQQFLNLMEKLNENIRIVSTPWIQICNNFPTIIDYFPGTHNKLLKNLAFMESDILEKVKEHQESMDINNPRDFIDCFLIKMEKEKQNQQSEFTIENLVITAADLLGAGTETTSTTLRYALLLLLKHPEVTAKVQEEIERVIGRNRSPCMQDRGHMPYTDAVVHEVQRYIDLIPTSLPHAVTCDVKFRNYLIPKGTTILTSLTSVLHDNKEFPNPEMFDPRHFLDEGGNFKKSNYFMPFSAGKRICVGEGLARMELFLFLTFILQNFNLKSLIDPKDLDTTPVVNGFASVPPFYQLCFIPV

Compound: C/C(=C\c1csc(C)n1)[C@@H]1C[C@@H]2O[C@]2(C)CCC[C@H](C)[C@H](O)[C@@H](C)C(=O)C(C)(C)[C@@H](O)CC(=O)N1 (relative stereo) [Compound (A), [1S-[1R*,3R*(E),7R*,10S*,11R*,12R*,16S*]]-7,11-dihydroxy 8,8,10,12,16-pentamethyl-3-[1-methyl-2-(2-methyl-4-thiazolyl)ethenyl-4-aza-17-oxobicyclo[14.1.0]heptadecane-5,9-dione]
- steady-state volume of distribution (VSS) ([1]; IV 5 mg/kg): 6.3 L/kg
- terminal elimination half-life (T-HALF) ([1]; IV 5 mg/kg): approximately 3 h
- CLT as percent of liver blood flow ([1]; IV 5 mg/kg, liver blood flow 90 mL/min/kg): 76%
- systemic clearance or total body clearance (CLT) ([1]; IV bolus 5 mg/kg): 68 mL/min/kg
- absolute oral bioavailability ([1]; oral 48 mg/kg vs IV 5 mg/kg): 31%
- peak plasma concentration (CMAX) ([1]; oral 48 mg/kg, ethanol:phosphate buffered saline 3:7): 5983 ng/mL
- excretion of intact Compound (A) in the bile [2]: < 1 % of the dose
- CLT (mean) ([3]; 10 min IV infusion 0.5 mg/kg): 17.3 mL/min/kg
- T-HALF ([3]; IV 0.5 mg/kg): approximately 24 h
- mean VSS ([3]; IV 0.5 mg/kg): 25.2 L/kg
- CLT as percent of liver blood flow ([3]; IV 0.5 mg/kg, liver blood flow 30.9 mL/min/kg): about 56%
- AUC, mean (SD) ([3]; preliminary IV pharmacokinetic study, 0.5 mg/kg): 483 (34) h.ng/mL
- rate of oxidative metabolism [4]: 1.2 nmol/min/mg protein
- rate of oxidative metabolism [5]: 1.3 nmol/min/mg protein
- inhibition of CYP2C9 [6]: did not inhibit
- inhibition of CYP2C19 [7]: did not inhibit
- inhibition of CYP2D6 [8]: did not inhibit
- permeability coefficient (Pc) ([9]; Caco-2, 10 pM (Ca 5 pg/mL)): 9.4 ×10⁻⁶ cm/s
- permeability coefficient (Pc) ([9]; Caco-2, 30 pM (Ca 15 pg/mL)): 10.5 ×10⁻⁶ cm/s
- permeability coefficient (Pc) ([9]; Caco-2, 100 pM (Ca 50 pg/mL)): 12.8 ×10⁻⁶ cm/s
- can be stored for up to ([10]; ambient temperature): up to 6 hours
- can be stored for up to ([10]; refrigerated temperature): up to 20 hours
- total impurities/degradants and potency ([10]; ambient temperature (20° C. to 25° C.) and room light, 20 hours): increase in total impurities/degradants and a decrease in potency
- total impurities/degradants ([10]; refrigerated temperature (2° C. to 8° C.), 20 hours): slight increase in total impurities/degradants
- appearance of the liquid oral dosage form ([10]; up to 20 hours, either storage condition): No changes from initial
